How the values were obtained:
A388 = experiment: OncoPanel cell proliferation assay, A388; assay type: cell-based, human; conditions: for GI50: read-out: Cell Count GI50
Procedure: (§1) Cells were seeded into 384-well plates and incubated in a humidified atmosphere of 5% CO2 at 37° C. Compounds were added the day following cell seeding. At the same time, a time zero untreated cell plate was generated. After a 3-day incubation period, cells were fixed and stained to allow fluorescence imaging of nuclei. Compounds (1 mM stock solutions) were serially diluted in half-log steps from the highest test concentration ([…]), and assayed over 10 concentrations with a maximum assay concentration of 0.1% DMSO. Automated fluorescence microscopy was carried out using a Molecular Devices ImageXpress Micro XL high-content imager, and images were collected with a 4× objective. 16-bit TIFF images were acquired and analyzed with MetaXpress 5.1.0.41 software.
(§2) Cell proliferation was measured by the fluorescence intensity of an incorporated nuclear dye. The output is referred to as the relative cell count, where the measured nuclear intensity is transformed to percent of control (POC) using the following formula: […]
(§3) Cellular response parameters were calculated using nonlinear regression to a sigmoidal single-site dose response model:
(§4) GI50 is the concentration needed to reduce the observed growth by half (midway between the curve maximum and the time zero value). […] In rare instances, values <0 or >10 may be observed. […] Curve-fitting, calculations, and report generation was performed using a custom data reduction engine and MathIQ based software (AIM).

CML-T1 = experiment: OncoPanel cell proliferation assay, CML-T1; assay type: cell-based, human; conditions: for EC50: read-out: Cell Count EC50; for GI50: read-out: Cell Count GI50
Procedure: as §1, with “Cells were grown in RPMI 1640, 10% FBS, 2 mM L-alanyl-L-glutamine, 1 mM Na pyruvate, or a special medium. Cells” for “Cells”
as §2, §3
(§5) EC50 is the test compound concentration at the curve inflection point or half the effective response (parameter C of the fitted curve solution). GI50 is the concentration needed to reduce the observed growth by half (midway between the curve maximum and the time zero value). “Cell Count Activity Area” is an estimate of the integrated area above the curve (Barretina, et al. The Cancer Cell Line Encyclopedia enables predictive modelling of anticancer drug sensitivity. Nature 483: 603-607). […] In rare instances, values <0 or >10 may be observed. […] Curve-fitting, calculations, and report generation was performed using a custom data reduction engine and MathIQ based software (AIM).

PC-3 = experiment: OncoPanel cell proliferation assay, PC-3; conditions: for EC50: PC-3, read-out: Cell Count EC50; for GI50: PC-3, read-out: Cell Count GI50; for Cell Count Activity Area: PC-3
Procedure: (§6) Cells were seeded into 384-well plates and incubated in a humidified atmosphere of 5% CO2 at 37° C. Compounds were added the day following cell seeding. At the same time, a time zero untreated cell plate was generated. After a 3-day incubation period, cells were fixed and stained to allow fluorescence imaging of nuclei. Compounds (1 mM stock solutions) were serially diluted in half-log steps from the highest test concentration (1 micromol), and assayed over 10 concentrations with a maximum assay concentration of 0.1% DMSO. Automated fluorescence microscopy was carried out using a Molecular Devices ImageXpress Micro XL high-content imager, and images were collected with a 4× objective. 16-bit TIFF images were acquired and analyzed with MetaXpress 5.1.0.41 software.

SHP-77 = experiment: OncoPanel cell proliferation assay, SHP-77; conditions: for EC50 / GI50 / IC50: Homo sapiens; for EC50: SHP77, read-out: Cell Count EC50; for GI50: SHP77, read-out: Cell Count GI50; for IC50: SHP77, read-out: Cell Count IC50; for Cell Count Activity Area: SHP-77
Procedure: as §6

AGS = experiment: OncoPanel cell proliferation assay, AGS; assay type: cell-based, human; conditions: for GI50: read-out: Cell Count GI50; for IC50: read-out: Cell Count IC50
Procedure: as §1, with “Cells were grown in RPMI 1640, 10% FBS, 2 mM L-alanyl-L-glutamine, 1 mM Na pyruvate, or a special medium. Cells” for “Cells”
as §2, §3, §5

SCaBER = experiment: OncoPanel cell proliferation assay, SCaBER; assay type: cell-based, human; conditions: for GI50: read-out: Cell Count GI50
Procedure: as §1, with “Cells were grown in RPMI 1640, 10% FBS, 2 mM L-alanyl-L-glutamine, 1 mM Na pyruvate, or a special medium. Cells” for “Cells”
as §2, §3, §5

NCIH446 = experiment: OncoPanel cell proliferation assay, NCIH446; assay type: cell-based, human; conditions: for EC50: NCI-H446, read-out: Cell Count EC50; for GI50: NCI-H446, read-out: Cell Count GI50
Procedure: as §1, with “Cells were grown in RPMI 1640, 10% FBS, 2 mM L-alanyl-L-glutamine, 1 mM Na pyruvate, or a special medium. Cells” for “Cells”
as §2, §3, §5

SNU-5 = experiment: OncoPanel cell proliferation assay, SNU-5; assay type: cell-based, human; conditions: for EC50: read-out: Cell Count EC50; for GI50: read-out: Cell Count GI50
Procedure: as §1, §2, §3, §4

SW579 = experiment: OncoPanel cell proliferation assay, SW579; assay type: cell-based, human; conditions: for EC50: read-out: Cell Count EC50; for GI50: read-out: Cell Count GI50
Procedure: as §1, with “Cells were grown in RPMI 1640, 10% FBS, 2 mM L-alanyl-L-glutamine, 1 mM Na pyruvate, or a special medium. Cells” for “Cells”
as §2, §3, §5

U2OS = experiment: OncoPanel cell proliferation assay, U2OS; assay type: cell-based, human; conditions: for GI50: read-out: Cell Count GI50
Procedure: as §1, §2, §3, §4

TF-1 = experiment: OncoPanel cell proliferation assay, TF-1; assay type: cell-based, human; conditions: for GI50: read-out: Cell Count GI50; for IC50: read-out: Cell Count IC50
Procedure: as §1, with “Cells were grown in RPMI 1640, 10% FBS, 2 mM L-alanyl-L-glutamine, 1 mM Na pyruvate, or a special medium. Cells” for “Cells”
as §2, §3, §5

CAMA-1 = experiment: OncoPanel cell proliferation assay, CAMA-1; conditions: for Cell Count Activity Area: CAMA-1; for EC50: CAMA-1, read-out: Cell Count EC50; for IC50: CAMA-1, read-out: Cell Count IC50
Procedure: as §6

[1] = Homo sapiens, read-out: Cell Count EC50
[2] = Homo sapiens, read-out: Cell Count IC50

CN[C@@H]1C[C@H]2O[C@@](C)([C@@H]1OC)n1c3ccccc3c3c4c(c5c6ccccc6n2c5c31)C(=O)NC4 [Staurosporine, reference compound]
Cell Count Activity Area (A388): 4.99
GI50 (A388; Homo sapiens): 1.03 nM
Cell Count Activity Area (CML-T1): 4.13
EC50 (CML-T1; Homo sapiens): 7.06 nM
GI50 (CML-T1; Homo sapiens): 6.96 nM
EC50 (PC-3; Homo sapiens): 0.903 nM
GI50 (PC-3; Homo sapiens): 1.07 nM
Cell Count Activity Area (PC-3): 4.67
EC50 (SHP-77): 28.1 nM
GI50 (SHP-77): 24.2 nM
IC50 (SHP-77): 30.8 nM
Cell Count Activity Area (SHP-77): 3.16
Cell Count Activity Area (AGS): 6.19
GI50 (AGS; Homo sapiens): 0.926 nM
IC50 (AGS; Homo sapiens): 1.21 nM
Cell Count Activity Area (SCaBER): 6.03
GI50 (SCaBER; Homo sapiens): 0.474 nM
Cell Count Activity Area (NCIH446): 2.81
EC50 (NCIH446; Homo sapiens): 32.6 nM
GI50 (NCIH446; Homo sapiens): 16.8 nM
Cell Count Activity Area (SNU-5): 2.58
EC50 (SNU-5; Homo sapiens): 6.44 nM
GI50 (SNU-5; Homo sapiens): 10.3 nM
Cell Count Activity Area (SW579): 6.09
EC50 (SW579; Homo sapiens): 0.52 nM
GI50 (SW579; Homo sapiens): 0.506 nM
GI50 (U2OS; Homo sapiens): 2.63 nM
Cell Count Activity Area (TF-1): 3.31
GI50 (TF-1; Homo sapiens): 10.9 nM
IC50 (TF-1; Homo sapiens): 11.9 nM
Cell Count Activity Area (CAMA-1): 2.99
EC50 (CAMA-1; Homo sapiens): 20.2 nM
GI50 (CAMA-1; Homo sapiens, CAMA-1, read-out: Cell Count GI50): 12 nM
IC50 (CAMA-1; Homo sapiens): 99 nM

CO[C@H]1C[C@@H]2CC[C@@H](C)[C@@](O)(O2)C(=O)C(=O)N2CCCC[C@H]2C(=O)O[C@H]([C@H](C)C[C@@H]2CC[C@@H](O)[C@H](OC)C2)CC(=O)[C@H](C)/C=C(\C)[C@@H](O)[C@@H](OC)C(=O)[C@H](C)C[C@H](C)/C=C/C=C/C=C/1C [Rapamycin, reference compound]
EC50 (A388; [1]): > 1000 nM
GI50 (A388; Homo sapiens): > 1000 nM
IC50 (A388; [2]): > 1000 nM
Cell Count Activity Area (CML-T1): 4.56
EC50 (CML-T1; Homo sapiens): 0.189 nM
GI50 (CML-T1; Homo sapiens): 0.694 nM
IC50 (CML-T1; [2]): 1.93 nM
EC50 (PC-3; Homo sapiens): 0.23 nM
GI50 (PC-3; Homo sapiens): 2.63 nM
IC50 (PC-3; Homo sapiens, PC-3, read-out: Cell Count IC50): > 1000 nM
Cell Count Activity Area (PC-3): 3.57
EC50 (SHP-77): > 1000 nM
GI50 (SHP-77): > 1000 nM
IC50 (SHP-77): > 1000 nM
Cell Count Activity Area (SHP-77): 1.13
Cell Count Activity Area (AGS): 5.67
EC50 (AGS; [1]): 0.0387 nM
GI50 (AGS; Homo sapiens): 0.165 nM
IC50 (AGS; Homo sapiens): 0.314 nM
Cell Count Activity Area (SCaBER): 5.25
EC50 (SCaBER; [1]): 0.0377 nM
GI50 (SCaBER; Homo sapiens): 0.158 nM
IC50 (SCaBER; [2]): 0.321 nM
Cell Count Activity Area (NCIH446): 1.69
EC50 (NCIH446; Homo sapiens): > 1000 nM
GI50 (NCIH446; Homo sapiens): 44.4 nM
IC50 (NCIH446; Homo sapiens, NCI-H446, read-out: Cell Count IC50): > 1000 nM
EC50 (SNU-5; Homo sapiens): 0.885 nM
GI50 (SNU-5; Homo sapiens): 24 nM
IC50 (SNU-5; [2]): > 1000 nM
Cell Count Activity Area (SW579): 4.77
EC50 (SW579; Homo sapiens): 0.0136 nM
GI50 (SW579; Homo sapiens): 0.0539 nM
IC50 (SW579; [2]): > 1000 nM
Cell Count Activity Area (U2OS): 3.04
EC50 (U2OS; [1]): 0.65 nM
GI50 (U2OS; Homo sapiens): 2.54 nM
IC50 (U2OS; [2]): > 1000 nM
Cell Count Activity Area (TF-1): 1.52
EC50 (TF-1; [1]): > 1000 nM
GI50 (TF-1; Homo sapiens): > 1000 nM
IC50 (TF-1; Homo sapiens): > 1000 nM
Cell Count Activity Area (CAMA-1): 4.07
EC50 (CAMA-1; Homo sapiens): 0.194 nM
IC50 (CAMA-1; Homo sapiens): 1.19 nM

Source: patent publication US20200131196A1 (Mount Tam Therapeutics, Inc., priority 2017, published 2020)
